Data set [1] can be described thus: Cytotoxicity against human HS5 cells assessed as cell death at 10 uM after 72 hrs by propidium iodide/Triton-X100 dye based FACS analysis.
Data set [2] has as its system K562-IMA[r]. Nature of the data set: Induction of sensitization to imatinib-induced cytotoxicity in imatinib-resistant human K562-IMA[r] cells assessed as induction of cell death at 10 uM after 72 hrs in presence of 1 uM imatinib by propidium iodide/Triton-X100 dye based FACS analysis. Format: functional. (In flow cytometry, cells or beads pass a laser one at a time.)

For data set [3], the target named is T1, Peroxisome proliferator-activated receptor gamma (Homo sapiens) (UniProt P37231).
T1 sequence (whole entry): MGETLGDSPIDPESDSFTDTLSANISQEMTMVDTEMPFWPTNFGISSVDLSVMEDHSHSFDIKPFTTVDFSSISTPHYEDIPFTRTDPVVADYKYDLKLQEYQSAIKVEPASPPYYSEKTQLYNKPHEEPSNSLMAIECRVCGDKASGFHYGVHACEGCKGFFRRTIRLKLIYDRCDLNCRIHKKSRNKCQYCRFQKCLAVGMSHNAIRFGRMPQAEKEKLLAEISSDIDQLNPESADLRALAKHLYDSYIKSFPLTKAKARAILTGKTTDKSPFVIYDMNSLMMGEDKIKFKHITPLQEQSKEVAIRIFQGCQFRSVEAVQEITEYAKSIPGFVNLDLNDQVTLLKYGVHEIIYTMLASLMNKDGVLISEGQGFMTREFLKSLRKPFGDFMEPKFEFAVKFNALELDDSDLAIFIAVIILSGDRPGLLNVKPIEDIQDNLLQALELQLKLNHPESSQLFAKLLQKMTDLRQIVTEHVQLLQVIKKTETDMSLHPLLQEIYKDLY
Nature of the data set: Transactivation of Gal4-fused human PPARgamma transfected in COS7 cells co-transfected with pGAL5-TK-pGL3 and pRennilla-CMV assessed as maximum intrinsic activation at 10 uM incubated for 39 hrs by dual luciferase reporter assay relative to pioglitazone. Format: cell-based.

The test system of data set [4] is K562. Nature of the data set: Cytotoxicity against human K562 cells assessed as cell death at 10 uM after 72 hrs by propidium iodide/Triton-X100 dye based FACS analysis. To be noted: k562, 72 h.
Data set [5] deals with T2, Peroxisome proliferator-activated receptor gamma (Homo sapiens, UniProt P37231).
T2 sequence (P37231 whole entry): T1 sequence (whole entry)
Nature of the data set: Transactivation of Gal4-fused human PPARgamma transfected in COS7 cells co-transfected with pGAL5-TK-pGL3 and pRennilla-CMV incubated for 39 hrs by dual luciferase reporter assay. Format: cell-based. (In general: A reporter such as luciferase makes a cellular process visible.)

The target in data set [6] is T1, Peroxisome proliferator-activated receptor gamma (Homo sapiens). Put plainly: Transactivation of Gal4-fused human PPARgamma transfected in COS7 cells co-transfected with pGAL5-TK-pGL3 and pRennilla-CMV at 20 uM incubated for 39 hrs by dual luciferase reporter assay. Format: cell-based.
The subject of data set [7] is COS-7. Put plainly: Cytotoxicity against African green monkey COS7 cells assessed as effect on cell metabolic activity at 20 uM after 72 hrs by MTT assay. Format: ADME, cell-based. To be noted: chlorocebus aethiops, cos-7, 72 h.
Data set [8] is described as follows: Solubility of compound in DMSO at 10 uM by microscopic analysis. Format: physicochemical.
Data set [9] has as its system K562-IMA[r]. Put plainly: Cytotoxicity against imatinib-resistant human K562-IMA[r] cells assessed as cell death at 10 uM after 72 hrs by propidium iodide/Triton-X100 dye based FACS analysis.
Data set [10] concerns K562-IMA[r]. Nature of the data set: Decrease in STAT5 expression in imatinib-resistant human K562-IMA[r] cells at 10 uM after 24 hrs in presence of 1 uM imatinib by Western blot analysis. Format: functional, cell-based. On the technique in general: Immunoblotting shows a protein as a band on a membrane.
In data set [11] the test system is K562-IMA[r]. Nature of the data set: Induction of sensitization to imatinib-induced cytotoxicity in imatinib-resistant human K562-IMA[r] cells assessed as induction of cell death at 10 uM after 72 hrs in presence of 1 uM imatinib by propidium iodide/Triton-X100 dye based FACS analysis (reference value: 15%). Format: functional.
Data set [12] has as its system K562-IMA[r]. Nature of the data set: Cytotoxicity against imatinib-resistant human K562-IMA[r] cells assessed as induction of cell death at 10 uM after 72 hrs by propidium iodide/Triton-X100 dye based FACS analysis relative to control.
A short description of data set [13]: Solubility of compound in water at >20 uM. Format: physicochemical. To be noted: buffer.
For data set [14], the system named is K562-IMA[r]. Put plainly: Induction of sensitization to imatinib-induced cytotoxicity in imatinib-resistant human K562-IMA[r] cells assessed as gain in cell death rate at 5 uM measured after 72 hrs in presence of 1 uM imatinib by propidium iodide/Triton-X100 dye based FACS analysis relative to imatinib-treated control. Format: functional.
Data set [15] has as its target T1, Peroxisome proliferator-activated receptor gamma (Homo sapiens). Nature of the data set: Transactivation of Gal4-fused human PPARgamma transfected in COS7 cells co-transfected with pGAL5-TK-pGL3 and pRennilla-CMV assessed as maximum intrinsic activation at 20 uM incubated for 39 hrs by dual luciferase reporter assay. Format: cell-based.
The test system of data set [16] is K562-IMA[r]. Put plainly: Induction of sensitization to imatinib induced cytotoxicity in imatinib-resistant human K562-IMA[r] cells assessed as cell death up to 2.5 uM measured after 72 hrs in presence of 1 uM imatinib by propidium iodide/Triton-X100 dye based FACS analysis. Format: functional.
Data set [17] has as its system K562-IMA[r]. Nature of the data set: Induction of sensitization to imatinib-induced cytotoxicity in imatinib-resistant human K562-IMA[r] cells assessed as induction of cell death measured after 72 hrs in presence of 1 uM imatinib by propidium iodide/Triton-X100 dye based FACS analysis. Format: functional.
The test system of data set [18] is K562-IMA[r]. Put plainly: Induction of sensitization to imatinib-induced cytotoxicity in imatinib-resistant human K562-IMA[r] cells assessed as cell death at 0.1 to 10 uM measured after 72 hrs in presence of 1 uM imatinib by propidium iodide/Triton-X100 dye based FACS analysis. Format: functional.

These results are taken from ChEMBL document CHEMBL4373734, “Overcoming imatinib resistance in chronic myelogenous leukemia cells using non-cytotoxic cell death modulators” (Eur J Med Chem, 2020).

Usually pEC50 stands for the EC50 on a negative log10 scale, so that one unit is a factor of ten.

pEC50: −log10 of the molar value. Calls of active or inactive are those of the source. The rule behind the calls is not given here. Bounds are passed on as bounds.

For the molecule `CCCc1nc2c(F)cccc2n1Cc1ccc(-c2ccccc2C(=O)O)cc1`, the Activity entry in data set [1], in [4], in data set [7] and in [9] was “Non-Toxic” in each case. In addition, the outcome in data set [2] and in data set [6] was Active. Further, the Intrinsic activity in [3] amounted to 44.2%. The molecule further showed a pEC50 in data set [5] of 5.06. Moreover, in [8], the solubility result is given as “Soluble”.

As to `CCCc1nc2ccccc2n1Cc1ccc(-c2ccccc2C(=O)O)cc1`, the Activity entry in [1], in [4], in data set [7] and in [9] was “Non-Toxic” each time. Also, the outcome in data set [2] and in data set [6] was Active. Besides, the Intrinsic activity in data set [3] came to 58.5%. This molecule also gave a pEC50 in data set [5] of 5.14. Besides, the solubility entry in [8] is on record as “Soluble”.

`CCCc1nc2c(Br)cccc2n1Cc1ccc(-c2ccccc2C(=O)O)cc1`: the Activity entry in data set [1], in [4], in [7] and in [9] was “Non-Toxic” throughout. In addition, the result in [2] and in data set [6] was Active. Also, in data set [3], the Intrinsic activity amounted to 44.9%. The molecule further gave a pEC50 in data set [5] of 5.08. For the same molecule, the solubility entry in [8] is “Soluble”.

For the molecule `CCCc1nc2ccccc2n1Cc1ccc(-c2ccccc2C(N)=O)cc1`, the Activity result in data set [1] is given as “Non-Toxic”; in data set [11], 62 - 78%; in data set [4] it was “Non-Toxic”; in data set [12] it was less than 20%; in data set [7], “Non-Toxic”; in data set [14], 16%. Moreover, in [17], the Activity result was “Dose-dependent effect”. Moreover, the outcome in [10] was Active. The Intrinsic activity in [3] worked out at 39.5%. Moreover, the solubility entry was “Insoluble” in data set [13] and “Soluble” in data set [8]. In addition, in data set [15], the Intrinsic activity result was “inactive”. The outcome in data set [16] was inactive.

In the case of `CCCc1nc2c(Br)cccc2n1Cc1ccc(-c2ccccc2C(N)=O)cc1`, the Activity result in [1] is “Non-Toxic”; in data set [11], 62 - 78%; in data set [4], “Non-Toxic”; in data set [12], less than 20%; in data set [7], “Non-Toxic”; in data set [14], 21.4%. The Activity entry in data set [17] is “Dose-dependent effect”. The result in [10] was Active. In addition, the Intrinsic activity in data set [3] came out at 20.8%. For the same molecule, the values for the solubility result in data set [13] and in [8] were “Insoluble” and “Soluble”, respectively. Moreover, the Intrinsic activity result in data set [15] is “inactive”. In addition, the result in data set [16] was inactive.

With `CCc1ccc(CCOc2ccc(CC3SC(=O)NC3=O)cc2)nc1` (stereo not given) [PIOGLITAZONE], in data set [2], the outcome was Active. Also, the outcome in [18] was inactive. Moreover, in data set [9], the Activity result is recorded as “Non-Toxic”.

`CCCc1nc2c(Cl)cccc2n1Cc1ccc(-c2ccccc2C(=O)O)cc1`: the Activity result in [1], in data set [4], in data set [7] and in data set [9] was “Non-Toxic” each time. Besides, the result in data set [2] and in data set [6] was Active. The Intrinsic activity in data set [3] turned out to be 44%. For the same molecule, the pEC50 in [5] is 5.06. Moreover, the solubility result in data set [8] is recorded as “Soluble”.
